“And” between values parts separate entries of the source, which are not always exact repeats. Identical values can stand only once. Where no end group is shown, it is not given here.
Key:
[1] = system: FITC-labelled H. pylori on AGS cells; assay: Flow cytometric anti-adhesion assay of FITC-labelled H. pylori on AGS cells; details: for reduction of adhesion: fragments of S3
Procedure: H. pylori was incubated for 48 h under microaerophilic conditions at 37° C. on Tryptic Soy Agar (Becton Dickinson, Germany), supplemented with 5% defibrinated sheep blood (Oxoid, UK).
Human gastric epithelial cells (AGS cells) were grown in RPMI 1640 with L-glutamine (PAA, Germany), supplemented with 10% FCS, on tissue culture flasks (75 cm^2, Sarstedt, USA) and 6-well-plates (Sarstedt, USA) in 5% CO2.
Agar grown H. pylori were harvested and resuspended in sterile carbonate buffer (pH 9.0) to a density of about 1.0×10^8 bacteria per ml. 10 μl of a FITC solution (1% in DMSO) were added and incubated with the bacteria for 45 min. Fluorescent labelling was terminated by pelleting the bacteria (3.150×g, 5 min). Bacteria were washed twice in PBS to remove excess FITC and were gently resuspended for further use.

OMP BabA = assay: Dot blot glycoconjugate assay, BabA ligands (Lewis b, H type I); format: binding; details: pre-treatment of H. pylori
[2] = system: H. pylori outer membrane proteins (OMP); assay: Dot blot glycoconjugate assay, adhesins in general; format: binding; details: pre-treatment of H. pylori
[3] = system: FITC-labelled H. pylori on human gastric mucosa; assay: In situ adhesion assay on histological sections of human gastric mucosa; format: cell-based; details: 300 μM
Procedure: In situ experiments with histological sections of human gastric mucosa and FITC-labelled H. pylori were performed according to Lengsfeld et al, 2004, J. Agricul. Food Chem: 52, 1495-1503, and evaluated by fluorescent microscopy. The adhesion of FITC-labelled H. pylori to the epithelium was assessed by fluorescent microscopy and imaging. The quantity of adhering bacteria to the epithelial surface was evaluated under double blinded conditions. Maximal adhesion was expressed as total 100% adhesion. The fluorescence area intensity was calculated by ImageJ® software (Olympus, Germany), standardizing the fluorescent area of the negative control as 100%.

[4] = 75 μM, untreated control = 100%
[5] = 150 μM, untreated control = 100%

GDFELVGQR [S6]
rel. adhesion in [%] (±SEM; n = 3) [1, 4]: 94 ± 3%
rel. adhesion in [%] (±SEM; n = 3) [1, 5]: 97 ± 2%

WEREEDEEQVDEEWR [S4]
rel. adhesion in [%] (±SEM; n = 3) [1, 4]: 98 ± 2%
rel. adhesion in [%] (±SEM; n = 3) [1, 5]: 107 ± 2%

ELAFPGSAQEVDR [S5]
antiadhesive activity against H. pylori (in words) [1]: inhibit adhesion
rel. adhesion in [%] (±SEM; n = 3) [1, 4]: 94 ± 2%
inhibition of adhesion ([1]; 75 μmol): 6%
rel. adhesion in [%] (±SEM; n = 3) [1, 5]: 85 ± 2%
inhibition of adhesion ([1]; 150 μmol): 17%
bacterial interaction with Lewis b-HSA conjugate (OMP BabA): inhibition
influence on other adhesins (other than BabA / Lewis b-HSA) [2]: not significantly influenced

LEDAFNVNR [S3C]
rel. adhesion in [%] (±SEM; n = 3) [1, 4]: 95 ± 5%
rel. adhesion in [%] (±SEM; n = 3) [1, 5]: 100 ± 4%

Asp-Phe-Leu-Glu-Asp (DFLED) [S3A]
rel. adhesion in [%] (±SEM; n = 3) [1, 4]: 102 ± 3%
rel. adhesion in [%] (±SEM; n = 3) [1, 5]: 108 ± 6%

DAFNVNR [S3D]
rel. adhesion in [%] (±SEM; n = 3) [1, 4]: 89 ± 4%
rel. adhesion in [%] (±SEM; n = 3) [1, 5]: 89 ± 3%
reduction of adhesion [1]: about 10%

LNIGPSSSPDIYNPEAGR [S2]
rel. adhesion in [%] (±SEM; n = 3) [1, 4]: 93 ± 8%
rel. adhesion in [%] (±SEM; n = 3) [1, 5]: 94 ± 6%

DFLEDAFNVNR [S3]
antiadhesive activity against H. pylori (in words) [1]: inhibit adhesion
rel. adhesion in [%] (±SEM; n = 3) [1, 4]: 81% and 81 ± 3%
rel. adhesion in [%] (±SEM; n = 3) [1, 5]: 83% and 83 ± 6%
bacterial interaction with Lewis b-HSA conjugate (OMP BabA): inhibition
inhibition of adhesion in situ [3]: about 40%
influence on other adhesins (other than BabA / Lewis b-HSA) [2]: not significantly influenced

CC(=O)N[C@H]1[C@H]([C@H](O)[C@H](O)CO)O[C@@](O[C@H]2[C@@H](O)[C@@H](CO)O[C@@H](O[C@H]3[C@H](O)[C@@H](O)C(O)O[C@@H]3CO)[C@@H]2O)(C(=O)O)C[C@@H]1O (stereo partly shown) [positive control, 3′sialyllactose, reference compound]
rel. adhesion in [%] (±SEM; n = 3) ([1]; positive control 3′sialyllactose 15 mM): 70 ± 5%

LDALEPDNRIESEGGLIETWNPNNK [S1]
rel. adhesion in [%] (±SEM; n = 3) [1, 4]: 95 ± 10%
rel. adhesion in [%] (±SEM; n = 3) [1, 5]: 104 ± 7%

DFLEDAFNV [S3E]
rel. adhesion in [%] (±SEM; n = 3) [1, 4]: 91 ± 4%
rel. adhesion in [%] (±SEM; n = 3) [1, 5]: 91 ± 4%
reduction of adhesion [1]: about 10%

DFLEDAF [S3F]
rel. adhesion in [%] (±SEM; n = 3) [1, 4]: 85 ± 3%
rel. adhesion in [%] (±SEM; n = 3) [1, 5]: 90 ± 5%
reduction of adhesion [1]: about 10%

LEDAFNV [S3G]
rel. adhesion in [%] (±SEM; n = 3) [1, 4]: 93 ± 2%
rel. adhesion in [%] (±SEM; n = 3) [1, 5]: 94 ± 3%
reduction of adhesion [1]: about 10%

AFNVNR [S3B]
rel. adhesion in [%] (±SEM; n = 3) [1, 4]: 97 ± 4%
rel. adhesion in [%] (±SEM; n = 3) [1, 5]: 104 ± 1%

Asp-Ala-Phe [S3H]
antiadhesive activity against H. pylori (in words) [1]: inactive
rel. adhesion in [%] (±SEM; n = 3) [1, 4]: 104 ± 6%
rel. adhesion in [%] (±SEM; n = 3) [1, 5]: 105 ± 1%
